Legend:
[1] = biological target: T1, Peroxisome proliferator-activated receptor alpha (Homo sapiens, UniProt Q07869); assay type: functional
T1 sequence (Q07869 whole entry): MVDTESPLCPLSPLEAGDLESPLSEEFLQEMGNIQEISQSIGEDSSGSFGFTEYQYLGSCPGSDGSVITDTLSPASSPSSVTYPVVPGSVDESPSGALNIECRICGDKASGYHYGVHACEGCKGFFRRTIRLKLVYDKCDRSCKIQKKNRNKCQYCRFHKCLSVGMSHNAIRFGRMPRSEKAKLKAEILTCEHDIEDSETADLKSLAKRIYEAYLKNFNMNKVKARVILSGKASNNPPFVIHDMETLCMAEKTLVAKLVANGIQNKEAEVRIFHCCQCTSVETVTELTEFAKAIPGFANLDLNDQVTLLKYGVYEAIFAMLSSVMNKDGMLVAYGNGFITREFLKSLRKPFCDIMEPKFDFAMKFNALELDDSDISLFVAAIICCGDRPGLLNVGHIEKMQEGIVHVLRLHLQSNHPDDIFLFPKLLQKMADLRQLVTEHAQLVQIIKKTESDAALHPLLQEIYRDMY

[2] = biological target: Hydroxycarboxylic acid receptor 2 (Homo sapiens, UniProt Q8TDS4)
Hydroxycarboxylic acid receptor 2, sequence (Q8TDS4 whole entry): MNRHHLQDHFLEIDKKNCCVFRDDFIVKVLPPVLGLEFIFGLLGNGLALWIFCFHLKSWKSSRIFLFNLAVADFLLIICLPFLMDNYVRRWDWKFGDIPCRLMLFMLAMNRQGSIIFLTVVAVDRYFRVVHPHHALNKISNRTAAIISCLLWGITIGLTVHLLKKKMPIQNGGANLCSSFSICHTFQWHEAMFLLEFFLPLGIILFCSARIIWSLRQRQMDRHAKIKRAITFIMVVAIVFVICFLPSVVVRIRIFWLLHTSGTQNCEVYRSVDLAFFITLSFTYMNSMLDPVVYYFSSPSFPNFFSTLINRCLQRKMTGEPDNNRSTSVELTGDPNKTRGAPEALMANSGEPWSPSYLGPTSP

[3] = biological target: T2, Substance-K receptor (Homo sapiens, UniProt P21452)
T2 sequence (P21452 whole entry): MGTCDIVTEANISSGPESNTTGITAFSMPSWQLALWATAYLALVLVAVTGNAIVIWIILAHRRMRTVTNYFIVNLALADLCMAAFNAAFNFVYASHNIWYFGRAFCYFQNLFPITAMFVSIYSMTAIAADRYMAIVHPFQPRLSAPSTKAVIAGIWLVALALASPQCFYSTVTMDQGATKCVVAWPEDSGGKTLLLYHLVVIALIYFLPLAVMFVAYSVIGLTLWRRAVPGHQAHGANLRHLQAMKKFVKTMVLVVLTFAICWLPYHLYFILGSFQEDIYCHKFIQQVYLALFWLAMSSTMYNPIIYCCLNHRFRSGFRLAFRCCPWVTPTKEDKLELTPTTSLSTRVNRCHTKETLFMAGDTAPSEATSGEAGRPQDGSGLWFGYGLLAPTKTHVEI

[4] = biological target: T3, Muscarinic acetylcholine receptor M4 (Homo sapiens, UniProt P08173)
T3 sequence (P08173 whole entry): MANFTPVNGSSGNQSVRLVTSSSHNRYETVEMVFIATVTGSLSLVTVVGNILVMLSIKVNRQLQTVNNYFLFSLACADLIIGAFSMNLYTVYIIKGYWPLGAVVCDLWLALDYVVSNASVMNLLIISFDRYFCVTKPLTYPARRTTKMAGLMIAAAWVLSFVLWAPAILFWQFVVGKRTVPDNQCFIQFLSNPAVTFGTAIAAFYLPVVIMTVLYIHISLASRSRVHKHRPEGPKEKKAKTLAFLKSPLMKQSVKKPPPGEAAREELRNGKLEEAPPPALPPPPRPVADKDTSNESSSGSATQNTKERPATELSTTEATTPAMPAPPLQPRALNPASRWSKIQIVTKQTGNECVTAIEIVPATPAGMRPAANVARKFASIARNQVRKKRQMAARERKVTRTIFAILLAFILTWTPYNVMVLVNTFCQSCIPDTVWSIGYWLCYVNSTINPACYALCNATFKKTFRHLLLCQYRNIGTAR
Further: assay procedure not described here.

Question: For CC(C)(Oc1ccc(Cl)cc1)C(=O)OCCOC(=O)c1cccnc1 [ETOFIBRATE], which AC50 [1] is on record?
Answer: > 30 µM

Question: Which AC50 [2] does the source give for Cc1cnc(C(=O)O)c[n+]1[O-] [ACIPIMOX] here?
Answer: 3.9 µM

Question: N=C(N)NC(=O)c1nc(Cl)c(N)nc1N [AMILORIDE] was tested. Which AC50 [3] did it give?
Answer: > 10 µM

Question: And the AC50 [4]?
Answer: > 10 µM
